From PubChem BioAssay (NCI)
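In this assay, cells in 96-well plates receive the compound at five concentrations for 48 hours. Endpoints are linearly interpolated between the surrounding concentrations. TGI is the concentration that stops growth completely.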

Columns and labels:
Test in all cases: NCI anticancer screen, dose series, 48 h
UACC-62 melanoma = test system: UACC-62 melanoma
T-47D breast = test system: T-47D breast
MDA-N = test system: MDA-N
MDA-MB-435 = test system: MDA-MB-435
K-562 leukemia = test system: K-562 leukemia
UO-31 renal = test system: UO-31 renal
OVCAR-8 ovarian = test system: OVCAR-8 ovarian
RPMI-8226 leukemia = test system: RPMI-8226 leukemia
OVCAR-3 ovarian = test system: OVCAR-3 ovarian
LOX IMVI melanoma = test system: LOX IMVI melanoma
MCF7 breast = test system: MCF7 breast
SK-MEL-2 melanoma = test system: SK-MEL-2 melanoma
HT29 colon = test system: HT29 colon
COLO 205 colon = test system: COLO 205 colon
IGROV1 ovarian = test system: IGROV1 ovarian
MDA-MB-231 breast = test system: MDA-MB-231 breast
ACHN renal = test system: ACHN renal
786-0 renal = test system: 786-0 renal
HCC-2998 colon = test system: HCC-2998 colon
MALME-3M melanoma = test system: MALME-3M melanoma
A549 NSCLC = test system: A549 NSCLC
TK-10 renal = test system: TK-10 renal
BT-549 breast = test system: BT-549 breast
SW-620 colon = test system: SW-620 colon
M14 melanoma = test system: M14 melanoma
SK-MEL-28 melanoma = test system: SK-MEL-28 melanoma
HCT-116 colon = test system: HCT-116 colon
NCI-H226 lung = test system: NCI-H226 lung
NCI-H460 lung = test system: NCI-H460 lung
NCI/ADR-RES ovarian = test system: NCI/ADR-RES ovarian
DU-145 prostate = test system: DU-145 prostate
SK-MEL-5 melanoma = test system: SK-MEL-5 melanoma
HL-60(TB) leukemia = test system: HL-60(TB) leukemia
NCI-H23 lung = test system: NCI-H23 lung
SN12C renal = test system: SN12C renal
SNB-75 CNS = test system: SNB-75 CNS
CAKI-1 renal = test system: CAKI-1 renal
UACC-257 melanoma = test system: UACC-257 melanoma
HOP-92 NSCLC = test system: HOP-92 NSCLC
SF-295 CNS = test system: SF-295 CNS
HOP-62 NSCLC = test system: HOP-62 NSCLC
OVCAR-5 ovarian = test system: OVCAR-5 ovarian
SF-268 CNS = test system: SF-268 CNS
RXF 393 renal = test system: RXF 393 renal
SR leukemia = test system: SR leukemia
SNB-19 CNS = test system: SNB-19 CNS
EKVX NSCLC = test system: EKVX NSCLC
PC-3 prostate = test system: PC-3 prostate
OVCAR-4 ovarian = test system: OVCAR-4 ovarian
HS 578T breast = test system: HS 578T breast
U251 CNS = test system: U251 CNS
NCI-H522 lung = test system: NCI-H522 lung
HCT-15 colon = test system: HCT-15 colon
KM12 colon = test system: KM12 colon
A498 renal = test system: A498 renal
MOLT-4 leukemia = test system: MOLT-4 leukemia
DMS 273 small cell lung = test system: DMS 273 small cell lung
SF-539 CNS = test system: SF-539 CNS
HOP-18 NSCLC = test system: HOP-18 NSCLC
CCRF-CEM leukemia = test system: CCRF-CEM leukemia
SK-OV-3 ovarian = test system: SK-OV-3 ovarian
DLD-1 colon = test system: DLD-1 colon
SNB-78 CNS = test system: SNB-78 CNS
M19-MEL melanoma = test system: M19-MEL melanoma
XF 498 CNS = test system: XF 498 CNS
KM20L2 colon = test system: KM20L2 colon

Structure (SMILES): CC1(c2ccccc2)O[C@@H]2C[C@H]3[C@@H]4CCC5=CC(=O)C=C[C@]5(C)[C@@]4(F)[C@@H](O)C[C@]3(C)[C@]2(C(=O)CO)O1 (stereo partly specified)
- TGI (UACC-62 melanoma): 35.6 µM
- TGI (T-47D breast): 41 µM
- TGI (MDA-N): 35.3 µM
- TGI (MDA-MB-435): 33.1 µM
- TGI (K-562 leukemia): 34.4 µM
- TGI (UO-31 renal): 33 µM
- TGI (OVCAR-8 ovarian): 41.7 µM
- TGI (RPMI-8226 leukemia): 17.2 µM
- TGI (OVCAR-3 ovarian): 28.7 µM
- TGI (LOX IMVI melanoma): 47.1 µM
- TGI (MCF7 breast): 29.9 µM
- TGI (SK-MEL-2 melanoma): 28.3 µM
- TGI (HT29 colon): 32.4 µM
- TGI (COLO 205 colon): 27.8 µM
- TGI (IGROV1 ovarian): 38.7 µM
- TGI (MDA-MB-231 breast): 24.5 µM
- TGI (ACHN renal): 34.8 µM
- TGI (786-0 renal): 32.2 µM
- TGI (HCC-2998 colon): 33.3 µM
- TGI (MALME-3M melanoma): 27.5 µM
- TGI (A549 NSCLC): 29.2 µM
- TGI (TK-10 renal): 41.6 µM
- TGI (BT-549 breast): 38.6 µM
- TGI (SW-620 colon): 47.1 µM
- TGI (M14 melanoma): 30.6 µM
- TGI (SK-MEL-28 melanoma): 30.8 µM
- TGI (HCT-116 colon): 27.8 µM
- TGI (NCI-H226 lung): 31 µM
- TGI (NCI-H460 lung): 29.8 µM
- TGI (NCI/ADR-RES ovarian): 36 µM
- TGI (DU-145 prostate): 35 µM
- TGI (SK-MEL-5 melanoma): 28.2 µM
- TGI (HL-60(TB) leukemia): 39.4 µM
- TGI (NCI-H23 lung): 36.3 µM
- TGI (SN12C renal): 26.1 µM
- TGI (SNB-75 CNS): 44.8 µM
- TGI (CAKI-1 renal): 56 µM
- TGI (UACC-257 melanoma): 33.1 µM
- TGI (HOP-92 NSCLC): 38.4 µM
- TGI (SF-295 CNS): 36.2 µM
- TGI (HOP-62 NSCLC): 29.2 µM
- TGI (OVCAR-5 ovarian): 33.1 µM
- TGI (SF-268 CNS): 49 µM
- TGI (RXF 393 renal): 36.3 µM
- TGI (SR leukemia): 76.9 µM
- TGI (SNB-19 CNS): 63.7 µM
- TGI (EKVX NSCLC): 30.4 µM
- TGI (PC-3 prostate): 30.9 µM
- TGI (OVCAR-4 ovarian): 28.3 µM
- TGI (HS 578T breast): 45.4 µM
- TGI (U251 CNS): 33.3 µM
- TGI (NCI-H522 lung): 25 µM
- TGI (HCT-15 colon): 36 µM
- TGI (KM12 colon): 30 µM
- TGI (A498 renal): 33.9 µM

Structure (SMILES): C=CCCCCCCCCCP(=O)(c1ccccc1)c1ccc2c(c1)OCCOCCOCCOCCO2 (stereo unspecified)
- TGI (UACC-62 melanoma): 29.4 µM
- TGI (MOLT-4 leukemia): 24.9 µM
- TGI (DMS 273 small cell lung): 29.1 µM
- TGI (K-562 leukemia): 24.6 µM
- TGI (UO-31 renal): 22.7 µM
- TGI (OVCAR-8 ovarian): 30.3 µM
- TGI (RPMI-8226 leukemia): 31.8 µM
- TGI (OVCAR-3 ovarian): 19.7 µM
- TGI (LOX IMVI melanoma): 29 µM
- TGI (SK-MEL-2 melanoma): 31.9 µM
- TGI (SF-539 CNS): 31.9 µM
- TGI (HT29 colon): 24.8 µM
- TGI (COLO 205 colon): 31 µM
- TGI (IGROV1 ovarian): 30.2 µM
- TGI (HOP-18 NSCLC): 31.8 µM
- TGI (ACHN renal): 31.4 µM
- TGI (CCRF-CEM leukemia): 40 µM
- TGI (786-0 renal): 29.8 µM
- TGI (SK-OV-3 ovarian): 34.8 µM
- TGI (HCC-2998 colon): 31.2 µM
- TGI (MALME-3M melanoma): 31.9 µM
- TGI (A549 NSCLC): 28.1 µM
- TGI (TK-10 renal): 32.4 µM
- TGI (DLD-1 colon): 27.3 µM
- TGI (SW-620 colon): 29.9 µM
- TGI (M14 melanoma): > 100 µM
- TGI (SK-MEL-28 melanoma): 30.1 µM
- TGI (HCT-116 colon): 25.1 µM
- TGI (NCI-H226 lung): 33.9 µM
- TGI (NCI-H460 lung): 26.4 µM
- TGI (SNB-78 CNS): 34.5 µM
- TGI (M19-MEL melanoma): 33 µM
- TGI (SK-MEL-5 melanoma): 24.2 µM
- TGI (HL-60(TB) leukemia): 19.7 µM
- TGI (NCI-H23 lung): 29.7 µM
- TGI (SN12C renal): 32.4 µM
- TGI (SNB-75 CNS): 33.1 µM
- TGI (CAKI-1 renal): > 100 µM
- TGI (UACC-257 melanoma): 30.6 µM
- TGI (HOP-92 NSCLC): > 100 µM
- TGI (SF-295 CNS): 28.5 µM
- TGI (HOP-62 NSCLC): 30.5 µM
- TGI (OVCAR-5 ovarian): 31.2 µM
- TGI (SF-268 CNS): 29.5 µM
- TGI (RXF 393 renal): 27.4 µM
- TGI (SR leukemia): 22.8 µM
- TGI (XF 498 CNS): 32.7 µM
- TGI (SNB-19 CNS): 25.7 µM
- TGI (EKVX NSCLC): 34.2 µM
- TGI (OVCAR-4 ovarian): 24.8 µM
- TGI (U251 CNS): 29.3 µM
- TGI (NCI-H522 lung): 24.5 µM
- TGI (KM20L2 colon): 27.1 µM
- TGI (HCT-15 colon): 28.2 µM
- TGI (KM12 colon): 25.4 µM
- TGI (A498 renal): 27.7 µM
